Data published in US7511119B2, “PRAME peptide analogues” (MannKind Corporation, priority 2005, dated 2009).
Square brackets hold non-standard residues; d marks the D form. Ends that are not written are not given here. Peptide text beside a SMILES is read from it. Phe(4-NO2) = N[C@@H](Cc1ccc([N+](=O)[O-])cc1)C(=O)O; Nle = CCCC[C@H](N)C(=O)O

Columns and labels:
HLA-A*0201 = HLA-A*0201 (Homo sapiens, UniProt P04439, D140Y/D185E/D98H/E176V/E277Q/G131W/G231S/I119V/I121R/I166T/I218V/L300P/L318F/N151K/N90K/P208A/P217A/Q86G/Q94H/R138H/R169H/T345S); assay: Peptide binding using T2 cells; conditions: half maximal binding of wild-type peptide relative to analog;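 also: Read-out is peptide-induced stabilization of HLA-A*0201 on the cell surface, reflecting mainly Kon at limiting peptide levels and both Kon and Koff at saturating levels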
From the text: Thus, at limiting concentrations of peptide, it is a measurement of Kon mostly and at saturation levels of peptide it is a measurement of both Kon and Koff.
Thus, at limiting concentrations of peptide, this is a measurement of Kon mostly and at saturation levels of peptide that is a measurement of both Kon and Koff.

[1] = tested on: T cell lines against natural epitope SSX-241-49; assay: Cross-reactivity and functional avidity: IFN-gamma production by T cell lines raised against natural SSX-2 41-49; format: cell-based, HHD transgenic mice; conditions: T cells raised to native peptide tested on analogs; footnote * and unit not given;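 also: analogs presented ex vivo by competent APCs to T cells specific for the non-mutated epitope, scored by lowest activating concentration, peak cytokine effect and concentration at that peak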

Row | Relative affinity (1/RA) (HLA-A*0201) | Compound | Cross-reactivity and fct avidity (native to analogs)* [1]
1 | 1.9 | FVSEKLFYV [SSX2 41-49 (K41F, A42V, I46L)] | 3
2 | 2.6 | KLSEKIFYI [SSX2 41-49 (A42L, V49I)] | 0.03
3 | 3.3 | WLSEKIFYV-OH [SSX2 41-49 (K41W, A42L)] | 0.3
4 | 1.0 | CC[C@H](C)[C@H](NC(=O)[C@H](CCCCN)NC(=O)[C@H](CCC(=O)O)NC(=O)[C@H](CO)NC(=O)[C@@H](NC(=O)[C@@H](N)Cc1ccc(O)cc1)C(C)C)C(=O)N[C@@H](Cc1ccccc1)C(=O)N[C@@H](Cc1ccc(O)cc1)C(=O)N[C@H](C(=O)O)C(C)C [SSX2 41-49 (K41Y, A42V)] | 0.1
5 | 3.9 | FVSEKIFSV [SSX2 41-49 (K41F, A42V, Y48S)] | >10
6 | 0.6 | YMSEKIFYV-OH [SSX2 41-49 (K41Y, A42M)] | 3
7 | 1.1 | CCCC[C@H](NC(=O)[C@H](CCCCN)NC(=O)[C@H](CCC(=O)O)NC(=O)[C@H](CO)NC(=O)[C@@H](NC(=O)[C@@H](N)Cc1ccccc1)C(C)C)C(=O)N[C@@H](Cc1ccccc1)C(=O)N[C@@H](Cc1ccc(O)cc1)C(=O)N[C@H](C(=O)O)C(C)C [SSX2 41-49 (K41F, A42V, I46Nle), FVSEK(Nle)FYV] (H-FVSEK[Nle]FYV-OH) | 10
8 | 0.8 | CC[C@H](C)[C@H](NC(=O)[C@H](CCCCN)NC(=O)[C@H](CCC(=O)O)NC(=O)[C@H](CO)NC(=O)[C@H](C)NC(=O)[C@@H](N)Cc1ccc(OC)cc1)C(=O)N[C@@H](Cc1ccccc1)C(=O)N[C@@H](Cc1ccc(O)cc1)C(=O)N[C@H](C(=O)O)C(C)C [SSX2 41-49 (K41(O-methyl Tyr))] (H-Y(Me)ASEKIFYV-OH) | 3
9 | 1.2 | YLSEKIFYV-OH [SSX2 41-49 (K41Y, A42L)] | –
10 | 1.1 | FVSDKIFYV [SSX2 41-49 (K41F, A42V, E44D)] | >10
11 | 3.8 | FVSEKIFTV-OH [SSX2 41-49 (K41F, A42V, Y48T)] | >10
12 | 1.1 | CCCC[C@H](NC(=O)[C@H](CO)NC(=O)[C@@H](NC(=O)[C@@H](N)Cc1ccccc1)C(C)C)C(=O)N[C@@H](CCCCN)C(=O)N[C@H](C(=O)N[C@@H](Cc1ccccc1)C(=O)N[C@@H](Cc1ccc(O)cc1)C(=O)N[C@H](C(=O)O)C(C)C)[C@@H](C)CC [SSX2 41-49 (K41F, A42V, E44Nle), FVS(Nle)KIFYV] (H-FVS[Nle]KIFYV-OH) | 10
13 | 1.7 | KMSEKIFYV [SSX2 41-49 (A42M)] | 0.1
14 | 1.0 | KASEKIFYI-OH [SSX2 41-49(V49I)] | 10
15 | 1.1 | CC[C@H](C)[C@H](NC(=O)[C@H](CCCCN)NC(=O)[C@H](CCC(=O)O)NC(=O)[C@H](CO)NC(=O)[C@H](C)NC(=O)[C@@H](N)Cc1ccc([N+](=O)[O-])cc1)C(=O)N[C@@H](Cc1ccccc1)C(=O)N[C@@H](Cc1ccc(O)cc1)C(=O)N[C@H](C(=O)O)C(C)C [SSX2 41-49 (K41(Phe-4NO2))] (H-[Phe(4-NO2)]ASEKIFYV-OH) | 3
16 | 2.6 | FVSEKLFTV [SSX2 41-49 (K41F, A42V, I46L, Y48T)] | >10
